Data on ten compounds can be found in patent publication US20120202799A1, “Condensed Azepine Derivatives As Bromodomain Inhibitors” (priority 2009, published 2012).

Test system in one data set: not given
Assay: not given
Conditions: not given
What is called melting point is the temperature of the solid-liquid transition. `COc1ccc(C2=NC(NC(=O)Nc3ccc(C(=O)c4ccccc4)cc3)c3nnc(C)n3-c3ccccc32)cc1` (centres unmarked): the melting point was found to be 225 °C.

Consider `Cc1nnc2n1-c1ccc(Br)cc1C(c1ccccc1F)=NC2NC(=O)OCc1ccccc1` (centres unmarked) [Example 17, phenylmethyl [8-bromo-6-(2-fluorophenyl)-1-methyl-4H-[1,2,4]triazolo[4,3-a][1,4]benzodiazepin-4-yl]carbamate], for which the melting point lay within 160 to 170 °C.

The compound `Cc1nnc2n1-c1ccccc1C(c1ccccc1)=NC2NC(=O)Nc1ccccc1` (centres unmarked) [Example 70, N-(1-methyl-6-phenyl-4H-[1,2,4]triazolo[4,3-a][1,4]benzodiazepin-4-yl)-N′-phenyl urea] had a melting point greater than 260 °C.

Regarding `COc1ccc2cc(C(=O)NC3N=C(c4ccccc4)c4ccccc4-n4c(C)nnc43)[nH]c2c1` (centres unmarked) [Example 53, 6-(methyloxy)-N-(1-methyl-6-phenyl-4H-[1,2,4]-triazolo[4,3-a][1,4]benzodiazepin-4-yl)-1H-indole-2-carboxamide], the melting point fell in the range of 160 to 170 °C.

For the next data set, the target named is T1, Bromodomain 2, 3 and 4 (BRD2, BRD3 and BRD4).
T1 construct: fused on or other part: six-His tag at the N-terminus
Nature of the data set: Fluorescence Anisotropy Binding Assay. Further details: species or system Human. The following applies: result stated for one or more of BRD2, BRD3 and BRD4, target not specified per compound. As to the method:
All data was normalized to the mean of 16 high and 16 low control wells on each plate. A four parameter curve fit of the following form was then applied:
y=a+((b−a)/(1+(10̂x/10̂c)̂d)
The His-tagged Bromodomain was extracted from E. coli cells using 0.1 mg/ml lysozyme and sonication. […] Further purification was completed by Superdex 200 prep grade size exclusion column. Purified protein was stored at −80 C in 20 mM HEPES pH 7.5 and 100 mM NaCl.
Turning to `Cc1nnc2n1-c1ccccc1C(c1ccccc1)=NC2NC(=O)OCc1ccco1` (centres unmarked) [Example 44, 2-furanylmethyl (1-methyl-6-phenyl-4H-[1,2,4]triazolo[4,3-a][1,4]benzodiazepin-4-yl)carbamate], the “pIC50 in one or more of the BRD2, BRD3 and BRD4 assays” value was no less than 5.0.

Another data set relates to TNFα levels in LPS stimulated whole blood. Nature of the data set: LPS Stimulated Whole Blood Measuring TNFα Levels Assay. It counts as cell-based. The following applies: LPS final concentration 200 ng/ml, 24 hours at 37 degrees, TNFα by immunoassay, read-out: pIC50 (TNFα levels) (converted). On the procedure: Activation of monocytic cells by agonists of toll-like receptors such as bacterial lipopolysaccharide (LPS) results in production of key inflammatory mediators including TNFα. Such pathways are widely considered to be central to the pathophysiology of a range of auto-immune and inflammatory disorders.
Compounds to be tested are diluted to give a range of appropriate concentrations and 1 ul of the dilution stocks is added to wells of a 96 plate. Following addition of whole blood (130 μl) the plates are incubated at 37 degrees (5% CO2) for 30 min before the addition of 10 ul of 2.8 ug/ml LPS, diluted in complete RPMI 1640 (final concentration=200 ng/ml), to give a total volume of 140 μl per well. After further incubation for 24 hours at 37 degrees, 140 μl of PBS are added to each well. The plates are sealed, shaken for 10 minutes and then centrifuged (2500 rpm×10 min). 100 μl of the supernatant are removed and TNFα levels assayed by immunoassay (typically by MesoScale Discovery technology) either immediately or following storage at −20 degrees. Dose response curves for each compound was generated from the data and an IC50 value was calculated.
As for `Cc1nnc2n1-c1ccccc1C(c1ccccc1)=NC2NC(=O)/C=C/c1ccccc1` (centres unmarked) [Example 64, (2E)-N-(1-methyl-6-phenyl-4H-[1,2,4]triazolo[4,3-a][1,4]benzodiazepin-4-yl)-3-phenyl-2-propenamide], the IC50 is no more than 10 µM.

As for `Cc1nnc2n1-c1ccccc1C(c1ccccc1)=NC2NC(=O)/C=C/c1ccc(F)cc1` (centres unmarked) [Example 65, (2E)-3-(4-fluorophenyl)-N-(1-methyl-6-phenyl-4H-[1,2,4]triazolo[4,3-a][1,4]benzodiazepin-4-yl)-2-propenamide], the IC50 was no more than 10 µM.

In the case of `CCOC(=O)NC1N=C(c2ccc(Cl)cc2)c2ccccc2-n2c(C)nnc21` (single isomer, unassigned; (+)) [Example 28, (+)-ethyl [6-(4-chlorophenyl)-1-methyl-4H-[1,2,4]triazolo[4,3-a][1,4]benzodiazepin-4-yl]carbamate], the IC50 was no more than 10 µM.

Regarding `CCOC(=O)NC1N=C(c2ccccc2)c2ccccc2-n2c(C)nnc21` (single isomer, unassigned; (+)) [Example 32, (+)-ethyl 1-methyl-6-phenyl-4H-[1,2,4]triazolo[4,3-a][1,4]benzodiazepin-4-ylcarbamate], the IC50 is no more than 10 µM.

`Cc1nnc2n1-c1ccccc1C(c1ccccc1)=NC2NC(=O)OCc1ccccc1` (single isomer, unassigned; (+)) [Example 27, (+)-phenylmethyl (1-methyl-6-phenyl-4H-[1,2,4]triazolo[4,3-a][1,4]benzodiazepin-4-yl)carbamate]: the IC50 was no more than 10 µM.

For `COc1ccc2cc(C(=O)NC3N=C(c4ccccc4)c4ccccc4-n4c(C)nnc43)[nH]c2c1` (centres unmarked) [Example 53, 6-(methyloxy)-N-(1-methyl-6-phenyl-4H-[1,2,4]-triazolo[4,3-a][1,4]benzodiazepin-4-yl)-1H-indole-2-carboxamide], the IC50 was no more than 10 µM.
